Results taken from PMC3538728 (PLoS ONE, 2013).
Several values for one entry are separate records, joined by “and”; a condition that tells them apart may be missing. Equal entries are not always repeated. Where two headings read alike, the source gives them in different places. Marks after values point to notes of the source that are not given here.

Molecular target: T1, γ-secretase (Homo sapiens, UniProt P49768)
T1 construct: γ-Secretase is composed of four subunits: Aph1, Pen2, glycosylated nicastrin, and endo-proteolyzed presenilin as the catalytic core; endogenous in cells; host or cells: HeLa S3 (ATCC CCL-2.2)
Assay: Aβ 1–40 secretion from HeLa cells in the presence of DAPT (sandwich ELISA), dose-response fits
Assay type: cell-based
Description: HeLa cells have been transfected using Lipofectamine LTX™ reagent following the manufacturer instructions. The transfection protocol and concentration of pSG5-cDNAwtC99 plasmid have been optimized to achieve desired assay sensitivity, a gradual increase in the substrate expression level, and a smooth transition from biphasic to the standard dose-response curves (Figs. 2–3). Initially concentration of pSG5-cDNAwtC99 plasmid have been optimized by western blots using anti-flag αM2 monoclonal antibody as described in our previous study. The cells were transfected in 24-well plates. The day before transfection the cells were trypsinized and counted. About 0.85×10^5 cells were seeded per well in 0.5 ml of complete growth medium to achieve about 75% confluent cultures on the day of transfection. Before the transfection old medium was removed and replaced with fresh 0.5 ml of complete growth medium. For transfection 5X DNA concentration was diluted in 500 µl of Opti-MEM®I Reduced Serum Media and mixed with 0.7 µl of Lipofectamine LTX™ Reagent. The solution was gently mixed and incubated for 30 minutes at room temperature to form DNA- Lipofectamine LTX™ Reagent complexes. Following the 30 min incubation, 100 µl of the DNA- Lipofectamine LTX™ Reagent complexes was added directly to each well containing cells and mixed gently by rocking the plate back and forth. The cells were incubated at 37°C in a CO2 incubator for 18 hours.
Fresh medium was added 18 hours after the transfection (0.5 ml per well), to prepare the cells for incubation with DAPT [18], [51]. Different concentrations of DAPT were prepared in DMSO, and added to the cells so that the final DMSO concentration in the culture was 0.1% (v/v). DMSO vehicle represents 0 nM DAPT. The cells were incubated with DAPT at given concentrations for 15 hours.
The assay linear response is in the range from 6–125 pM of Aβ 1–40. The assays were performed by closely following the manufacturer instructions. […] Each well was filled with 50 µl of the antibody conjugate solution and 50 µl of sample. The Aβ 1–40 standards were supplied by the manufacturer and prepared in parallel with other samples. All of the prepared wells were wrapped in aluminum foil and incubated overnight at 4°C with gentle mixing. The next day each well was washed five times with 300 µl of wash solution. After each […] wash, the wash solution was poured out and the wells were dried by tapping the plates on an absorbing paper. Washed wells were filled with 100 µl of the enzyme conjugate solution, covered, and incubated for 30 min at room temperature with shaking. The washing procedure was repeated once again to remove excess of the enzyme-conjugate. Next 100 µl of the substrate solution was added in each well in dark, and kept for 30 minutes covered at room temperature. The reaction was quenched by adding 50 µl of stop solution to each well, and within 15 min the signal intensity was read by measuring absorption at 450 nm.
All experimental results were analyzed using MicroCal Origin 7.0 program, nonlinear regressions, and equations that represent specific mechanism. All results are reported as the best fit value ± standard error with two-sigma confidence intervals shown in square brackets (i.e. x±y [p, q]). Briefly, the standard error indicates random errors (i.e. precision) for each method, while the two sigma confidence intervals indicate the ability of given experimental setup to provide information about specific best-fit parameter. The random error for presented experiments is low, as indicated by a low scatter from the best fit values. The sharp confidence intervals can be obtained by taking a large number of independent data points that cover all segments that define the measured functions. […]

[1] = HeLa, 250 ng/mL pSG5-cDNAwtC99, eqn. 2
[2] = HeLa, 400 ng/mL pSG5-cDNAwtC99, eqn. 2
[3] = HeLa, 600 ng/mL pSG5-cDNAwtC99, eqn. 2
[4] = HeLa, 800 ng/mL pSG5-cDNAwtC99, eqn. 2
[5] = average over 0-92 ng/mL pSG5-cDNAwtC99
[6] = untransfected HeLa cells, eqn. 1, six free fit parameters
[7] = untransfected HeLa cells, eqn. 1 with IA and MI as constants
[8] = untransfected HeLa cells, measured separately, taken as constant in regression

T1 sequence (Q9NZ42 whole entry, other chains not shown): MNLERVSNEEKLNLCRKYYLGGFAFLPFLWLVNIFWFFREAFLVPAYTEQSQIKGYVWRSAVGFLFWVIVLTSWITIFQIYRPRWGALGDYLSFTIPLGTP
T1 sequence (Q92542 34-709, other chains not shown, further chain): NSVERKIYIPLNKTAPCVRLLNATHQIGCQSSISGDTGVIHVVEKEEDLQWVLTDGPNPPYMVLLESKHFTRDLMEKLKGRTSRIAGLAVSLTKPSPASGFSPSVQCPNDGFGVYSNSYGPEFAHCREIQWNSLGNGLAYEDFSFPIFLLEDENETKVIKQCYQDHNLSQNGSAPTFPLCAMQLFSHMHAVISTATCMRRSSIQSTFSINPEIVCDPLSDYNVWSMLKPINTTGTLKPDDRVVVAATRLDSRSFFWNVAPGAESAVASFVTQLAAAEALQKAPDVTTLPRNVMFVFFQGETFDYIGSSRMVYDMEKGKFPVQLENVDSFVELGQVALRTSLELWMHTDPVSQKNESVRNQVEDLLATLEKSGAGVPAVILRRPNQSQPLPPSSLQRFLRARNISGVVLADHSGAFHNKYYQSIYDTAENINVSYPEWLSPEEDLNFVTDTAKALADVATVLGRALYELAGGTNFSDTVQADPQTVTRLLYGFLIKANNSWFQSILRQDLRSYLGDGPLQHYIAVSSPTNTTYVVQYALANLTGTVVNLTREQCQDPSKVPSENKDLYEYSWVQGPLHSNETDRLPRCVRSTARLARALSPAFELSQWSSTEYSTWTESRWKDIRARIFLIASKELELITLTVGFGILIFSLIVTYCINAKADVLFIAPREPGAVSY
T1 sequence (Q96BI3 whole entry, other chains not shown, further chain): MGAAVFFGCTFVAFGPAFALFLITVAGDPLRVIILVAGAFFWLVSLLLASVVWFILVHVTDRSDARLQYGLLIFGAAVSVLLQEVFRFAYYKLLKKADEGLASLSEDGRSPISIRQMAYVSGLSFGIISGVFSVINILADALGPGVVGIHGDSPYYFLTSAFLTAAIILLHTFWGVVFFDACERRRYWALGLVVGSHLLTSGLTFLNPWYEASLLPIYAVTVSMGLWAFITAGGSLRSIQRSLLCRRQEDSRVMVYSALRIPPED

C[C@H](NC(=O)Cc1cc(F)cc(F)c1)C(=O)N[C@H](C(=O)OC(C)(C)C)c1ccccc1 [DAPT, N-[N-(3,5-difluorophenacetyl)-L-alanyl]-S-phenylglycine t-butyl ester]
Maximal Inhibition, MI (HeLa, 92 ng/mL pSG5-cDNAwtC99, eqn. 1): 1.9 ± 0.6 pM per 10^6 cells | Initial Activity, IA (HeLa, 92 ng/mL pSG5-cDNAwtC99, eqn. 1, activity at zero DAPT): 119 ± 4 pM per 10^6 cells | EC50 (HeLa, 92 ng/mL pSG5-cDNAwtC99, eqn. 1, read-out: Activation EC50): 178 ± 45 nM | IC50 (HeLa, 92 ng/mL pSG5-cDNAwtC99, eqn. 1, read-out: Inhibition IC50): 661 ± 80 nM | Inhibition Hill's coef [1]: 1.02 ± 0.07 | Maximal Inhibition, MI [1]: -0.9 ± 0.4 pM per 10^6 cells | Initial Activity, IA (HeLa, 250 ng/mL pSG5-cDNAwtC99, eqn. 2, activity at zero DAPT): 229 ± 4 pM per 10^6 cells | IC50 (HeLa, 250 ng/mL pSG5-cDNAwtC99, standard dose-response, eqn. 2, read-out: Inhibition IC50): 126 ± 9 nM | Inhibition Hill's coef [2]: 0.95 ± 0.04 | Maximal Inhibition, MI [2]: 2.0 ± 0.9 pM per 10^6 cells | Initial Activity, IA (HeLa, 400 ng/mL pSG5-cDNAwtC99, eqn. 2, activity at zero DAPT): 190 ± 2 pM per 10^6 cells | IC50 (HeLa, 400 ng/mL pSG5-cDNAwtC99, standard dose-response, eqn. 2, read-out: Inhibition IC50): 110 ± 8 nM | Inhibition Hill's coef [3]: 0.84 ± 0.03 | Maximal Inhibition, MI [3]: -4 ± 2 pM per 10^6 cells | Initial Activity, IA (HeLa, 600 ng/mL pSG5-cDNAwtC99, eqn. 2, activity at zero DAPT): 140 ± 4 pM per 10^6 cells | IC50 (HeLa, 600 ng/mL pSG5-cDNAwtC99, standard dose-response, eqn. 2, read-out: Inhibition IC50): 98 ± 6 nM | Inhibition Hill's coef [4]: 0.61 ± 0.07 | Maximal Inhibition, MI [4]: 2 ± 0.8 pM per 10^6 cells | Initial Activity, IA (HeLa, 800 ng/mL pSG5-cDNAwtC99, eqn. 2, activity at zero DAPT): 90 ± 1 pM per 10^6 cells | IC50 (HeLa, 800 ng/mL pSG5-cDNAwtC99, standard dose-response, eqn. 2, read-out: Inhibition IC50): 89 ± 5 nM | mode of inhibition (at saturating C99 substrate): noncompetitive inhibitor | Activation Hill coef., average [5]: 1.0 ± 0.1 | Inhibition Hill's coef, average [5]: 2.1±0.2 | Maximal Inhibition, MI, average [5]: 0.5 ± 0.2 pM per 10^6 cells | IC50 (average over 0-92 ng/mL pSG5-cDNAwtC99 (all biphasic curves), read-out: Inhibition IC50, average): 534 ± 53 nM | EC50 (average over 0-92 ng/mL pSG5-cDNAwtC99 (all biphasic profiles), read-out: Activation EC50, average): 111 ± 41 nM | Maximal Activity, MA, average (average over 0-92 ng/mL pSG5-cDNAwtC99 (biphasic curves)): 189 pM per 10^6 cells | Maximal Inhibition, MI, average (average over 250-800 ng/mL pSG5-cDNAwtC99): -0.5 ± 0.6 pM per 10^6 cells | IC50 (average over 250-800 ng/mL pSG5-cDNAwtC99 (standard dose-response curves), read-out: Inhibition IC50, average): 106 ± 16 nM | potential to activate γ-secretase activity (MA vs. IA) (if binding only at the activation site, 31 pM vs. 196 pM Aβ 1–40 per 10^6 cells): ~7 fold | cDNAwtC99 required to reach activation by DAPT (transfection without DAPT giving same Aβ 1-40 secretion as endogenous substrate at 33 nM DAPT): 70 ng/mL | cDNAwtC99 required to reach activation by DAPT (transfection without DAPT giving same Aβ 1-40 secretion as endogenous substrate at 100 nM DAPT): 120 ng/mL | cDNAwtC99 required to reach activation by DAPT (transfection without DAPT giving same Aβ 1-40 secretion as endogenous substrate at 333 nM DAPT): 118 ng/mL | cDNAwtC99 required to reach activation by DAPT (transfection without DAPT giving same Aβ 1-40 secretion as endogenous substrate at 500 nM DAPT): 100 ng/mL | cDNAwtC99 required to reach activation by DAPT (transfection without DAPT giving same Aβ 1-40 secretion as endogenous substrate at 1000 nM DAPT): 16 ng/mL | activity on Endogenous substrate (Aβ 1-40 secreted) (untransfected HeLa cells, 33 nM DAPT): 81.1 pM per 10^6 cells | activity on Endogenous substrate (Aβ 1-40 secreted) (untransfected HeLa cells, 100 nM DAPT): 132 pM per 10^6 cells and 132.0 pM per 10^6 cells | activity on Endogenous substrate (Aβ 1-40 secreted) (untransfected HeLa cells, 333 nM DAPT): 129.0 pM per 10^6 cells | activity on Endogenous substrate (Aβ 1-40 secreted) (untransfected HeLa cells, 500 nM DAPT): 111.6 pM per 10^6 cells | activity on Endogenous substrate (Aβ 1-40 secreted) (untransfected HeLa cells, 1000 nM DAPT): 43.0 pM per 10^6 cells | observed maximal activity, Aβ 1–40 secreted (untransfected HeLa cells, at 108 nM DAPT): 145 pM per 10^6 cells | Activation Hill's coef [6]: 1.09 ± 0.4 | Inhibition Hill's coef [6]: 1.9±0.5 and 1.92 ± 0.5 | Activation Hill's coef [7]: 1.09 ± 0.16 | Inhibition Hill's coef [7]: 1.92 ± 0.25 | Maximal Activity, MA [7]: 196 ± 35 pM per 10^6 cells | EC50 (untransfected HeLa cells, eqn. 1 with IA and MI as constants, read-out: Activation EC50): 72 ± 9 nM | IC50 (untransfected HeLa cells, eqn. 1 with IA and MI as constants, read-out: Inhibition IC50): 472 ± 35 nM | Initial Activity, IA [8]: 31 ^c pM per 10^6 cells | Maximal Inhibition, MI [8]: 0 ^c pM per 10^6 cells | DAPT concentration at which maximal activity is observed (untransfected HeLa cells, peak of biphasic curve): 108 nM
